Measurements: patent US20050288310A1, “Methods of treating cellular proliferative disease using naphthalimide and PARP-1 inhibitors” (priority 2004, published 2005)

Assays:
[1] = Solubility; format: physicochemical
[2] = test system: RIF-1 tumors; assay: Murine tumor growth delay model (RIF-1 tumors in C3H mice); conditions: same doses, IP; for Median (days to 4×): median tumor volume quadrupling time; for T/C (tumor growth delay ratio): ratio of 4× growth times of treated and untreated control tumors; for Delay (tumor growth delay): versus untreated control
Method: C3H mice were inoculated subcutaneously in the flank with 2×10^5 radiation-induced fibrosarcoma cells (RIF-1) to produce experimental tumors. When tumors reached ˜100 mm^3, test compounds (100 uL) were administered intraperitoneally (IP).
Single compound groups received either amonafide (60 mg/kg), caffeine (75 mg/kg), or nicotinamide (1000 mg/kg).
Combination groups received amonafide (60 mg/kg), in combination with either caffeine (75 mg/kg), or nicotinamide (1000 mg/kg).
All compounds were administered at the same concentration as the combination groups (amonafide (60 mg/kg), caffeine (75 mg/kg), nicotinamide (1000 mg/kg). Sequential groups included one group treated with amonafide followed by treatment with caffeine, one group treated with caffeine followed by treatment with amonafide, one group treated with amonafide followed by treatment with nicotinamide, and one group treated with nicotinamide followed by treatment with amonafide.
Four mice were used in each treatment group.
Tumors were measured 3 times a week using Vernier calipers, and tumor volume (V) was calculated according to the formula: [formula]
Where D1-3 are perpendicular diameters measured in millimeters (mm).
Tumor volume quadrupling time was defined as the time (days) for treated and untreated tumors to grow to four times (4×) their initial treatment volume. Tumor growth delay ratio (T/C) was defined as the ratio of 4× growth times of treated (T) and untreated control (C) tumors.

SMILES | Solubility in water compared to monohydrochloride salt [1] | Solubility in saline ([1]; at therapeutic concentrations) | Median (days to 4×) [2] | T/C (tumor growth delay ratio) [2] | Delay (tumor growth delay) [2]
CN(C)CCN1C(=O)c2cccc3cc(N)cc(c23)C1=O [Amonafide, 5-amino-2-[(dimethylamine)ethyl]-1H-benz[de-]isoquinoline-1,3-(2H)-dione] | more soluble in water | soluble in saline at therapeutic concentrations | 7.5 | 1.6 | 2.97
Cn1c(=O)c2c(ncn2C)n(C)c1=O [Caffeine, caffeine] | – | – | 5.5 | 1.2 | 1.01
NC(=O)c1cccnc1 [Nicotinamide, nicotinamide] | – | – | 5.3 | 1.1 | 0.76
